# From patent US7897582B2, “Oligonucleotide compositions and methods for the modulation of the expression of B7 protein” (Isis Pharmaceuticals, Inc., priority 2003, dated 2011)
# Strand notation (5' to 3'): a small letter for the sugar, then the base; units joined by * are phosphorothioate-linked, units joined directly phosphodiester-linked; [ ] holds rarer units or linkages, { } end groups; capitals alone tell only the bases. e = 2'-O-(2-methoxyethyl) (MOE); [5mC] = 5-methylcytosine; d = 2'-deoxy (DNA)
# Test system: Human B7-1 mRNA
# Test: Human B7-1 mRNA expression in electroporated, LPS-induced THP-1 cells
# Type: cell-based
# Settings: THP-1 cells electroporated at 10 micromolar oligonucleotide, LPS 1 μg/ml 16 hours
# Excerpt: (§1) The human promonocytic leukaemia cell line, THP-1 (American Type Culture Collection, Manassas, Va.) was maintained in RPMI 1640 growth media supplemented with 10% fetal calf serum (FCS; Life Technologies, Rockville, Md.). A total of 1×10^7 cells were electroporated at an oligonucleotide concentration of 10 micromolar in 2 mm cuvettes, using an Electrocell Manipulator 600 instrument (Biotechnologies and Experimental Research, Inc.) employing 200 V, 1000 μF. Electroporated cells were then transferred to petri dishes and allowed to recover for 16 hrs. Cells were then induced with LPS at a final concentration of 1 μg/ml for 16 hours. RNA was isolated and processed as described in previous examples.
Substance,% mRNA EXPRESSION [%],% mRNA INHIBITION [%]
113489 (antisense e[5mC]*e[5mC]*e[5mC]*eT*e[5mC]*d[5mC]*dA*dG*dT*dG*dA*dT*dG*dT*dT*eT*eA*e[5mC]*eA*eA) [compound 113489],122,
113490 (antisense eG*eA*eA*eG*eA*d[5mC]*d[5mC]*d[5mC]*dT*d[5mC]*d[5mC]*dA*dG*dT*dG*eA*eT*eG*eT*eT) [compound 113490],183,
113491 (antisense e[5mC]*eG*eT*eA*eG*dA*dA*dG*dA*d[5mC]*d[5mC]*d[5mC]*dT*d[5mC]*d[5mC]*eA*eG*eT*eG*eA) [compound 113491],179,
113492 (antisense eT*eT*e[5mC]*e[5mC]*e[5mC]*dA*dG*dG*dT*dG*d[5mC]*dA*dA*dA*dA*e[5mC]*eA*eG*eG*e[5mC]) [compound 113492],27,73
113493 (antisense eT*eG*eG*e[5mC]*eT*dT*d[5mC]*dA*dG*dA*dT*dG*d[5mC]*dT*dT*eA*eG*eG*eG*eT) [compound 113493],488,
113494 (antisense e[5mC]*e[5mC]*eT*e[5mC]*e[5mC]*dG*dT*dG*dT*dG*dT*dG*dG*d[5mC]*d[5mC]*e[5mC]*eA*eT*eG*eG) [compound 113494],77,23
113495 (antisense eG*eG*eT*eG*eA*dT*dG*dT*dT*d[5mC]*d[5mC]*d[5mC]*dT*dG*d[5mC]*e[5mC]*eT*e[5mC]*e[5mC]*eG) [compound 113495],43,57
113496 (antisense eG*eA*eT*eG*eG*dT*dG*dA*dT*dG*dT*dT*d[5mC]*d[5mC]*d[5mC]*eT*eG*e[5mC]*e[5mC]*eT) [compound 113496],71,29
113497 (antisense eA*eG*eG*eT*eA*dT*dG*dG*dA*d[5mC]*dA*d[5mC]*dT*dT*dG*eG*eA*eT*eG*eG) [compound 113497],78,22
113498 (antisense eG*eA*eA*eA*eG*dA*d[5mC]*d[5mC]*dA*dG*d[5mC]*d[5mC]*dA*dG*d[5mC]*eA*e[5mC]*e[5mC]*eA*eA) [compound 113498],37,63
113499 (antisense e[5mC]*eA*eG*e[5mC]*eG*dT*dT*dG*d[5mC]*d[5mC]*dA*d[5mC]*dT*dT*d[5mC]*eT*eT*eT*e[5mC]*eA) [compound 113499],25,75
113500 (antisense eG*eT*eG*eA*e[5mC]*d[5mC]*dA*d[5mC]*dA*dG*dG*dA*d[5mC]*dA*dG*e[5mC]*eG*eT*eT*eG) [compound 113500],83,17
113501 (antisense eA*eG*eA*eT*eG*d[5mC]*dG*dA*dG*dT*dT*dT*dG*dT*dG*e[5mC]*e[5mC]*eA*eG*e[5mC]) [compound 113501],36,64
113502 (antisense e[5mC]*e[5mC]*eT*eT*eT*dT*dG*d[5mC]*d[5mC]*dA*dG*dT*dA*dG*dA*eT*eG*e[5mC]*eG*eA) [compound 113502],26,74
113503 (antisense e[5mC]*eG*eG*eT*eT*d[5mC]*dT*dT*dG*dT*dA*d[5mC]*dT*d[5mC]*dG*eG*eG*e[5mC]*e[5mC]*eA) [compound 113503],65,35
113504 (antisense e[5mC]*eG*e[5mC]*eA*eG*dA*dG*d[5mC]*d[5mC]*dA*dG*dG*dA*dT*d[5mC]*eA*e[5mC]*eA*eA*eT) [compound 113504],46,54
113505 (antisense e[5mC]*eT*eT*e[5mC]*eA*dG*d[5mC]*d[5mC]*dA*dG*dG*dT*dG*dT*dT*e[5mC]*e[5mC]*e[5mC]*eG*e[5mC]) [compound 113505],40,60
113506 (antisense eT*eA*eA*e[5mC]*eG*dT*d[5mC]*dA*d[5mC]*dT*dT*d[5mC]*dA*dG*d[5mC]*e[5mC]*eA*eG*eG*eT) [compound 113506],105,
113507 (antisense eT*eT*e[5mC]*eT*e[5mC]*d[5mC]*dA*dT*dT*dT*dT*d[5mC]*d[5mC]*dA*dA*e[5mC]*e[5mC]*eA*eG*eG) [compound 113507],36,64
113508 (antisense e[5mC]*eT*eG*eT*eT*dG*dT*dG*dT*dT*dG*dA*dT*dG*dG*e[5mC]*eA*eT*eT*eT) [compound 113508],117,

# Test system: Human B7-2 mRNA
# Test: Human B7-2 mRNA expression in electroporated THP-1 cells induced with LPS and dibutyryl cAMP
# Type: cell-based
# Settings: THP-1 cells electroporated at 10 micromolar oligonucleotide, LPS and dibutyryl cAMP (500 μM) 16 hours
# Excerpt: as §1, with “hrs” for “hrs.”, “and dibutyryl cAMP (500 μM)” for “at a final concentration of 1 μg/ml”
Substance,% mRNA EXPRESSION [%],% mRNA INHIBITION [%]
113145 (antisense eT*eG*eT*eG*eG*dG*d[5mC]*dT*dT*dT*dT*dT*dG*dT*dG*eA*eT*eG*eG*eA) [compound 113145],46,54
113146 (antisense eA*eA*eT*e[5mC]*eA*dT*dT*d[5mC]*d[5mC]*dT*dG*dT*dG*dG*dG*e[5mC]*eT*eT*eT*eT) [compound 113146],32,68
113147 (antisense e[5mC]*e[5mC]*eG*eT*eG*dT*dA*dT*dA*dG*dA*dT*dG*dA*dG*e[5mC]*eA*eG*eG*eT) [compound 113147],35,65
113148 (antisense eA*e[5mC]*e[5mC]*eG*eT*dG*dT*dA*dT*dA*dG*dA*dT*dG*dA*eG*e[5mC]*eA*eG*eG) [compound 113148],23,77
113149 (antisense eT*e[5mC]*eA*eT*e[5mC]*dT*dT*d[5mC]*dT*dT*dA*dG*dG*dT*dT*e[5mC]*eT*eG*eG*eG) [compound 113149],29,71
113150 (antisense eA*e[5mC]*eA*eA*eG*d[5mC]*dT*dG*dA*dT*dG*dG*dA*dA*dA*e[5mC]*eG*eT*e[5mC]*eG) [compound 113150],19,81
113151 (antisense eT*eG*e[5mC]*eT*e[5mC]*dG*dT*dA*dA*d[5mC]*dA*dT*d[5mC]*dA*dG*eG*eG*eA*eA*eT) [compound 113151],208,
113152 (antisense eA*eA*eG*eA*eT*dG*dG*dT*d[5mC]*dA*dT*dA*dT*dT*dG*e[5mC]*eT*e[5mC]*eG*eT) [compound 113152],89,11
113153 (antisense e[5mC]*eG*e[5mC]*eG*eT*d[5mC]*dT*dT*dG*dT*d[5mC]*dA*dG*dT*dT*eT*e[5mC]*e[5mC]*eA*eG) [compound 113153],19,81
113154 (antisense e[5mC]*eA*eG*e[5mC]*eT*dG*dT*dA*dA*dT*d[5mC]*d[5mC]*dA*dA*dG*eG*eA*eA*eT*eG) [compound 113154],63,37
113155 (antisense eG*eG*eG*e[5mC]*eT*dT*d[5mC]*dA*dT*d[5mC]*dA*dG*dA*dT*d[5mC]*eT*eT*eT*e[5mC]*eA) [compound 113155],13,87
113156 (antisense e[5mC]*eA*eT*eG*eT*dA*dT*d[5mC]*dA*d[5mC]*dT*dT*dT*dT*dG*eT*e[5mC]*eG*e[5mC]*eA) [compound 113156],83,17
113157 (antisense eA*eG*e[5mC]*e[5mC]*e[5mC]*d[5mC]*d[5mC]*dT*dT*dA*dT*dT*dA*d[5mC]*dT*e[5mC]*eA*eT*eG*eG) [compound 113157],13,87
113159 (antisense eA*eG*eT*e[5mC]*eT*d[5mC]*d[5mC]*dT*d[5mC]*dT*dT*dG*dG*d[5mC]*dA*eT*eA*e[5mC]*eG*eG) [compound 113159],43,57
113160 (antisense e[5mC]*e[5mC]*e[5mC]*eA*eT*dA*dA*dG*dT*dG*dT*dG*d[5mC]*dT*d[5mC]*eT*eG*eA*eA*eG) [compound 113160],09,91
